What was measured:
N.gonorrhoeae [1] = assay: Inhibition of adherence of N. gonorrhoeae to vaginal cells; assay type: cell-based; details: human vaginal cells, 50 cells counted; for reduction of the number of adhering bacteria: 5 mg/ml oligosaccharide
Experimental: Cells: Vaginal cells from healthy women in fertile age not having used hormonal preparations and werein proliferation phase were tested. Cells were collected from rear vaginal fornix with a wooden spatula and suspended in RPMI 1640 in a concentration of 10^5 cells/ml.
Gonococci: International reference strain 3 from Neisseriaavd. Statens Seruminstitut, Copenhagen, Denmark, suspended in cell cultivation medaium RPMI 1640 (Flow Ltd.) in a concentration of 10^9 bacteria/ml.
Oligosaccharides: β-D-Galp-(1-3)- -D-GalNAc-(1-0)-Me (1) β-D-Galp-(1-3)- -D-GalNAc-(1-0)-Me (2)
(§1) Procedure: 1 ml of […] containing 0 of (1), 5 mg/ml of (1) and 0.5 mg/ml of (1) and 5 mg/ml of (2), respectively, were incubated with 0.5 ml bacterial suspension at 37°C for 30 minutes. Vaginal cells (1 ml) were incubated with the above preincubated bacterial suspensions at 37°C for 45 minutes. The incubated suspensions were filtered through a filter (pore size 12 µ) and washed 3 times with PBS. The filter was pressed against microscope slides for a few seconds, the microscope slides being then fixed in methanol for 10 minutes. The microscope slides were dried in air and coloured with acridine orange for 2 minutes. After washing and drying in air the slides were studied by means of fluorescence microscopy. The number of bacteria adhering per cell was counted. In each test 50 vaginal cells were counted.

N.meningitidis = assay: Inhibition of adherence of N. meningitidis to buccal mucosa cells; assay type: cell-based; details: human buccal mucosa cells, N.meningitidis strain 3K, 45 min
Experimental: as §1
The procedure of EXAMPLE 2 was repeated but in this case cells were collected from young healthy women by scraping the Buccal Mucosae with a wooden spatula. The bacterium used was N.meningitidis, international test strain 3K, Statens Seruminstitut, Copenhagen, Denmark.

N.gonorrhoeae [2] = assay: Inhibition of haemagglutination of human erythrocytes by N. gonorrhoeae; assay type: cell-based; details: Neisseria gonorrhoeae, Erythrocyte; human erythrocytes (O1Rh+); fimbriated N.gonorrhoeae; read after 2-4 hours at room temperature; read-out: Minimum concentration of inhibitor resulting in complete inhibition
Experimental: (§2) In the test there is used a strain of N. gonorrhoeae (international reference strain 3 from Neisseriaavd. Statens seruminstitutt, Copenhagen, Denmark. and a fresh strain of the same species isolated at the Bacteriological Central Laboratory, Lunds Hospital, Lund, Sweden). The bacteria were cultivated on a special gonococc medium, see Mardh, P.A., Martensson, D, Soltesz, L.V. "An effective, simplified medium for the culture of N. gonorrhoeae". Sex.Trans.Dis. Vol. 5, pp. 10-13, 1978, at + 37°C for 18 hours. The bacterial culture was slurried in PBS, pH 7.2 to a density of 109 bacteria/ml.
(§3) Haemagglutination was performed using erythrocytes from sheep or man (O1Rh+) which were washed with PBS and suspended to a concentration of 1 % v/w in PBS, pH 7.2. The agglutination tests were-performed so that 25 µl of the bacterial suspension was titrated in PBS by using two-fold […] steps. Then 25 µl of the erythrocyte suspension which had been made 1 % were added. The haemagglutination titre (Hu) was determined after incubating the plates (microtitre plates, Limbo Sc. Comp. Inc.) for 2-4 hours in room temperature.
(§4) In the haemagglutination-inhibition tests there were used serial dilutions having the relevant inhibitor (50 µl/well) and […] bacterial suspension diluted to contain twice the lowest haemagglutination titre. The plates were incubated for 30 minutes at +37°C, 25 µl of erythrocyte suspension being then added to each well. The result was read after 2-4 hours incubation at room temperature.

N. gonorrhoeae = assay: Inhibition of haemagglutination of sheep erythrocytes by N. gonorrhoeae; assay type: cell-based; details: Neisseria gonorrhoeae, Erythrocyte, fimbriated N. gonorrhoeae, read after 2-4 hours at room temperature, read-out: Minimum concentration of inhibitor resulting in complete inhibition of haemagglutination
Experimental: as §2, §3, §4

N.gonorrhoeae [3] = assay: Disinfection: removal of bacteria from an infected surface; details: 0.1 percent by weight aqueous solution applied with a cotton pad
Experimental: By disinfection is here primarily intended removal of bacteria from a surface, for example a wound.
A 0.1 percent by weight aqueous solution of the compound β-D-Galp-(1-4)-D-GNAc is prepared and applied by means of a cotton pad onto a surface infected by N.gonorrhoeae.

What does the source list for COC1O[C@H](CO)[C@H](O)[C@H](O[C@@H]2O[C@H](CO)[C@H](O)[C@H](O)[C@H]2O)[C@H]1NC(C)=O (stereo partly drawn) [(1), β-D-Galp-(1-3)- -D-GalNAc-(1-0)-Me]?
effect on adherence (N.gonorrhoeae [1]; 0.5 mg/ml oligosaccharide): did not significantly effect adherence; reduction of the number of adhering bacteria (N.gonorrhoeae [1]; 45 min): 87; reduction of the number of adhering bacteria (N.meningitidis; 0.5 mg/ml oligosaccharide): about 15%; reduction of the number of adhering bacteria (N.meningitidis; 5 mg/ml oligosaccharide): 90%

COC1O[C@H](CO)[C@H](O)[C@H](O[C@@H]2O[C@H](CO)[C@H](O)[C@H](O)[C@H]2O)[C@H]1NC(C)=O (stereo partly drawn) [(2), β-D-Galp-(1-3)- -D-GalNAc-(1-0)-Me] was tested. Which “reduction of the number of adhering bacteria” value (N.gonorrhoeae [1]) did it give?
Its value is “did not significantly effect adherence”.

How did the minimal effective concentration (N.gonorrhoeae [2]) turn out when CC(=O)N[C@H]1[C@H](O[C@H]2[C@@H](O)[C@@H](CO)O[C@H](O[C@@H]3[C@H](O)[C@@H](O)[C@H](O[C@H]4[C@H](O)[C@@H](O)C(O)O[C@@H]4CO)O[C@@H]3CO)[C@@H]2O)O[C@H](CO)[C@H](O)[C@@H]1O (stereo partly drawn) [β-D-GalNAc-(1-3)-α-D-Galp-(1-4) -β-D-Galp-(1-4)-D-Glc] was run?
Its minimal effective concentration is over 5000 µg/mL.

Which results are given for CC(=O)N[C@H]1C(O)O[C@H](CO)[C@H](O)[C@@H]1O[C@@H]1O[C@H](CO)[C@H](O)[C@H](O)[C@H]1O (stereo partly drawn) [β-D-Galp-(1-3)-D-GalNAc]?
minimal effective concentration (N.gonorrhoeae [2]): 800 µg/mL; minimal effective concentration (N. gonorrhoeae): 900 µg/mL

How did the minimal effective concentration (N.gonorrhoeae [2]) turn out when OC[C@H]1O[C@@H](O[C@H]2[C@@H](O)[C@@H](CO)OC(O)[C@@H]2O)[C@H](O)[C@@H](O)[C@H]1O (stereo partly drawn) [β-D-Galp-(1-3)-D-Gal] was run?
The minimal effective concentration was over 5000 µg/mL.

CO[C@H]1O[C@H](CO)[C@H](O)[C@H](O[C@@H]2O[C@H](CO)[C@H](O)[C@H](O)[C@H]2O)[C@H]1NC(C)=O [β-D-Galp-(1-3)-α-D-GalNAc-(1-O)Me] was tested. Which minimal effective concentration (N. gonorrhoeae) did it give?
The minimal effective concentration was 150 µg/mL.

With CO[C@H]1O[C@H](CO)[C@H](O)[C@H](O[C@@H]2O[C@H](CO)[C@H](O)[C@H](O)[C@H]2O)[C@H]1NC(C)=O [β-D-Galp-(1-3)-α-D-GalNAcp-(1-O)Me, Methyl 2-acetamido-2-deoxy-3-0-(β-D-galactopyranosyl)-a--D-galactopyranoside] as the compound, how does the minimal effective concentration (N.gonorrhoeae [2]) read?
The minimal effective concentration was 200 µg/mL.

How did the minimal effective concentration (N. gonorrhoeae) turn out when CO[C@@H]1O[C@H](CO)[C@H](O)[C@H](O[C@@H]2O[C@H](CO)[C@H](O)[C@H](O)[C@H]2O)[C@H]1NC(C)=O [β-D-Galp-(1-3)-β-D-GalNAc-(1-O)Me] was run?
Its minimal effective concentration is over 2000 µg/mL.

CO[C@@H]1O[C@H](CO)[C@H](O)[C@H](O[C@@H]2O[C@H](CO)[C@H](O)[C@H](O)[C@H]2O)[C@H]1NC(C)=O [β-D-Galp-(1-3)-β-D-GalNAcp-(1-O)Me, Methyl 2-acetamido-2-deoxy-3-0-(B-D-galaetopyranosyl)--β-D-galactopyranoside] was tested. Which minimal effective concentration (N.gonorrhoeae [2]) did it give?
Its minimal effective concentration is over 2000 µg/mL.

For CC(=O)N[C@H]1C(O)O[C@H](CO)[C@@H](O[C@@H]2O[C@H](CO)[C@H](O)[C@H](O)[C@H]2O)[C@@H]1O (stereo partly drawn) [β-D-Galp-(1-4)-D-GNAc], which “removal of the bacterium from the surface” value (N.gonorrhoeae [3]) is on record?
The value was “effective removal of the bacterium from the surface”.

With OC[C@H]1O[C@@H](O[C@H]2[C@H](O)[C@@H](O)C(O)O[C@@H]2CO)[C@H](O)[C@@H](O)[C@H]1O (stereo partly drawn) [β-D-Galp-(1-4)-D-Glc] as the compound, how does the minimal effective concentration (N.gonorrhoeae [2]) read?
The minimal effective concentration was over 5000 µg/mL.

For OC[C@H]1O[C@@H](OC[C@H]2OC(O)[C@H](O)[C@@H](O)[C@@H]2O)[C@H](O)[C@@H](O)[C@H]1O (stereo partly drawn) [β-D-Galp-(1-6)-D-Glc], which minimal effective concentration (N.gonorrhoeae [2]) is on record?
The minimal effective concentration was over 5000 µg/mL.
